Data taken from patent publication US9181182B2, “S1P receptors modulators” (Akaal Pharma PTY LTD, priority 2008, dated 2015).

Experiments:
female BALB/c mice = assay: Lymphopenia assay; format: in vivo
Experimental: The study was performed to determine the ability of the compounds of the invention to induce lymphopenia in female BALB/c mice. On day 0, 27 female BALB/c mice were randomised based on body weight into nine groups of three mice each. Animals received a single i.p. administration of Test compounds and blood was collected by cardiac puncture either 6 or 24 h after administration. […] Changes to other haematological parameters were not observed.

S1P1 human receptor = S1P1 human receptor (Homo sapiens (Human), UniProt P21453); assay: S1P1 [35S]-GTPgamaS binding assay (agonist activity); format: biochemical; details: for EC50: GTPgamaS binding, agonist; for Efficacy (% of maximum): S1P1, relative to reference agonist S1P; for EC50S1P1/EC50S1P: potency at S1P1 relative to S1P
Experimental: Selected Compounds of the Examples were evaluated at Millipore Corporation, USA, using S1P1 receptor; [^35S]-GTPgamaS binding assay. A [^35S]-GTPgamaS binding assay at Millipore was conducted by GPCR Profiler™ Custom Service Laboratory, Temecula, Calif., Millipore, Inc. to monitor dose-dependent agonist selectivity for selected Examples against the S1P1 receptors. The assay was completed with sample compounds subjected to an eight-point, four-fold dose response curve with starting concentration of 10 μM. Selectivity was determined upon initial addition of compounds followed by a 30 minute incubation at 30° C. Following compound incubation, bounded [^35S]-GTPgamaS was determined by filtration and scintillation counting.
(§1) Independently, selected compounds were evaluated for S1P1 and S1P3 agonistic activity. The S1P1 assay system was GTPgama-S35 binding in membranes from CHO K1 cells, expressing S1P1 human receptor. The S1P3 assay system was calcium mobilization in CHO K1 cells expressing S1P3 human receptor. […] Compounds were tested initially at a concentration of 10 μM.

[1] = test system: Human promyelocytic leukemia (HL-60) cells; assay: Cell viability (growth inhibition) assay, MTS; format: cell-based; details: Homo sapiens, 50% reduction in cell viability of HL-60 cells, 48 hr incubation
Experimental: In order to measure the apoptotic effect of compounds on the metabolic activity of viable cells, the following assay was performed on Human promyelocytic leukemia cells. The assay utilises the tetrazolium compound (3-(4,5-dimethylthiazol-2-yl)-5-(3-carboxymethoxyphenyl)-2-(4-sulfophenyl)-2H-tetrazolium, inner salt; (MTS) and an electron coupling reagent (phenazine methosulfate; (PMS). MTS is bioreduced by cells into a formazan product the optical absorbance of which is measured directly from 96 well assay plates. The conversion of MTS into aqueous, soluble formazan is accomplished by dehydrogenase enzymes found in metabolically active cells. The quantity of formazan product as measured by the amount of 490 nm absorbance is directly proportional to the number of living cells in culture.
The assay was based on the National Cancer Institute (NCI) protocol, briefly, cells were grown in RPMI 1640 media supplemented with 10% FCS (foetal calf serum) and kept at 37° C. in a humidified environment with 5% CO2.
For the growth inhibition assay, Human promyelocytic leukemia (HL-60) cells were seeded at a density of 10,000 cells per well in 96 well plates in a volume of 100 μl and allowed to grow for 24 h. Compounds were serially diluted in DMSO at concentrations 100 fold higher than used in the assay (100×). Compounds were freshly prepared for each experiment. The 100× stocks were then diluted to 2× stocks into media and immediately, 100 μl of this 2× stock was added to the cells to create the desired final concentration of drug with a DMSO concentration of 1%. One row of each 96 well plate was treated with DMSO alone as a control. Cells were then incubated for a further 48 hr. Metabolic activity was determined using MTS (Promega) (90% 1.6 mg/ml MTS, 10% 1.6 mg/ml PMS (phenazine methosulfate) made fresh in PBS). 50 μl of this mix was added to all wells of the plates and allowed to incubate for 1.5-2 hr. Plates were shaken gently for about 15 min and absorbance was read on a plate reader at 490 nm. Averages were taken of the readings at each point with standard deviation and plotted using MicroCal Origin.

S1P3 human receptor = S1P3 human receptor (Homo sapiens (Human), UniProt Q99500); assay: S1P3 calcium mobilization in CHO K1 cells; format: cell-based; details: NA = Not Active
Experimental: as §1

[2] = 3 mg/kg and 30 mg/kg single i.p., 6 and 24 h, compared to untreated animals

Sequence of S1P1 human receptor (P21453 whole entry): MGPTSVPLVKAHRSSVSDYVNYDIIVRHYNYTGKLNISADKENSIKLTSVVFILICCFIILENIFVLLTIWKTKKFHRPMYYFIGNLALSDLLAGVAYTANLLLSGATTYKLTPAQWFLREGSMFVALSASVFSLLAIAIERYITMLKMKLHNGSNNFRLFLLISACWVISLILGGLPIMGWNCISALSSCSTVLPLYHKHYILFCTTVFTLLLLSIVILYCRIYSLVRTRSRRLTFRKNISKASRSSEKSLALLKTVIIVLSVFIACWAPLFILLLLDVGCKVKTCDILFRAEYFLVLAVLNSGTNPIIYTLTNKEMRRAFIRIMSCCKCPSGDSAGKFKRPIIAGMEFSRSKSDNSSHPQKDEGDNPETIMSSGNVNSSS
Sequence of S1P3 human receptor (Q99500 whole entry): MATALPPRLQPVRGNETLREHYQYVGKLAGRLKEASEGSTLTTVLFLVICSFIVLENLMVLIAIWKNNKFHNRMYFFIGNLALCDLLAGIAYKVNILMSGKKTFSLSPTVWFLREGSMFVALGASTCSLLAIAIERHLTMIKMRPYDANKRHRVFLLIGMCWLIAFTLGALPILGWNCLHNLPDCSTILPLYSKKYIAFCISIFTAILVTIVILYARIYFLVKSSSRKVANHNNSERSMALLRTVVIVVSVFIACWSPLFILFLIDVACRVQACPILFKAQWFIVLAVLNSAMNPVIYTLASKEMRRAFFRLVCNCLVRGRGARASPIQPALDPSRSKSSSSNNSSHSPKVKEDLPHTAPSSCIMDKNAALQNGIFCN

Row | Changes to other haematological parameters (female BALB/c mice; single i.p., 6 or 24 h) | EC50 (S1P1 human receptor) [nM] | Efficacy (% of maximum) (S1P1 human receptor) [%] | EC50S1P1/EC50S1P (S1P1 human receptor) | IC50 [1] [nM] | EC50 (S1P3 human receptor) [nM] | Structure (SMILES) | lymphocyte counts (female BALB/c mice; [2]) | total white blood cell counts (female BALB/c mice; [2])
1 | not observed | 6.8 | 92 | 0.4 | 1820 ± 500 | 1290 | CCOc1ccc(-c2nc(-c3cccc4c3CCN4CC(N)(CO)CO)no2)cc1OCC [Example 34, 2-Amino-2-((4-(5-(3,4-diethoxyphenyl)-1,2,4-oxadiazol-3-yl)indolin-1-yl)methyl)propane-1,3-diol] | decrease | decrease
2 | – | 344 | 117 | 36.41 | 3100 | > 15600 | CCOc1ccc(-c2nc(-c3ccc4c(c3)CCN4CC(N)(CO)CO)no2)cc1OCC [Example 40, 2-Amino-2-((5-(5-(3,4-diethoxyphenyl)-1,2,4-oxadiazol-3-yl)indolin-1-yl)methyl)propane-1,3-diol] | – | –
